{
  "source": "PubChem BioAssay AID2060498",
  "about": "(Molecular Pharmacology Branch, DTP, NCI, 2025);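 note: spheroids exposed to compounds for 7 days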;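 for viability, T/C: 100% = DMSO vehicle control viability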",
  "system": "171881-019-R-J1-PDC tumor spheroids, viability",
  "experiment": "Anticancer human tumor 171881-019-R-J1-PDC patient-derived invasive breast carcinoma cell line growth inhibition [GQUAD]",
  "details": "spheroids with HUVEC and MSC; for IC50: curve of first compound; for viability, T/C: stronger effect = lower value",
  "how_it_was_run": "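Tumor cells were grown as complex spheroids with HUVEC endothelial cells and mesenchymal stem cells as stroma. G-quadruplex stabilizers were combined with targeted agents over half-log dilutions from near the clinical Cmax, or from 10 microM.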",
  "data": [
    {"smiles": "CC1COCCN1c1cc(C2(O)CC3CCC(C2)O3)c2cnn(-c3ccn[nH]3)c2n1", "note": "(configuration not stated) + CN(C)c1ccc(Nc2c3ccc(NC(=O)CCN4CCCC4)cc3nc3cc(NC(=O)CCN4CCCC4)ccc23)cc1", "values": [
      {"measurement": "IC50", "setting": "second compound 0.0316 µM", "value": "< 31.6", "unit": "nM"},
      {"measurement": "IC50", "setting": "second compound 0.1 µM", "value": "< 31.6", "unit": "nM"},
      {"measurement": "IC50", "setting": "second compound 0.316 µM", "value": "< 31.6", "unit": "nM"},
      {"measurement": "IC50", "setting": "second compound 1 µM", "value": "< 31.6", "unit": "nM"},
      {"measurement": "IC50", "setting": "second compound 3.16 µM", "value": "< 31.6", "unit": "nM"},
      {"measurement": "IC50", "setting": "second compound 10 µM", "value": "< 31.6", "unit": "nM"},
      {"measurement": "viability, T/C", "setting": "second compound 0.0316 µM, first compound 0.0316 µM", "value": 48, "unit": "%"},
      {"measurement": "viability, T/C", "setting": "second compound 0.0316 µM, first compound 0.1 µM", "value": 16.6, "unit": "%"},
      {"measurement": "viability, T/C", "setting": "second compound 0.0316 µM, first compound 0.316 µM", "value": 5.6, "unit": "%"},
      {"measurement": "viability, T/C", "setting": "second compound 0.0316 µM, first compound 1 µM", "value": 1.83, "unit": "%"},
      {"measurement": "viability, T/C", "setting": "second compound 0.0316 µM, first compound 3.16 µM", "value": 1.12, "unit": "%"},
      {"measurement": "viability, T/C", "setting": "second compound 0.0316 µM, first compound 10 µM", "value": 0.76, "unit": "%"},
      {"measurement": "viability, T/C", "setting": "second compound 0.1 µM, first compound 0.0316 µM", "value": 47.5, "unit": "%"},
      {"measurement": "viability, T/C", "setting": "second compound 0.1 µM, first compound 0.1 µM", "value": 15.7, "unit": "%"},
      {"measurement": "viability, T/C", "setting": "second compound 0.1 µM, first compound 0.316 µM", "value": 5.27, "unit": "%"},
      {"measurement": "viability, T/C", "setting": "second compound 0.1 µM, first compound 1 µM", "value": 1.88, "unit": "%"},
      {"measurement": "viability, T/C", "setting": "second compound 0.1 µM, first compound 3.16 µM", "value": 1.2, "unit": "%"},
      {"measurement": "viability, T/C", "setting": "second compound 0.1 µM, first compound 10 µM", "value": 1.32, "unit": "%"},
      {"measurement": "viability, T/C", "setting": "second compound 0.316 µM, first compound 0.0316 µM", "value": 41.9, "unit": "%"},
      {"measurement": "viability, T/C", "setting": "second compound 0.316 µM, first compound 0.1 µM", "value": 13.6, "unit": "%"},
      {"measurement": "viability, T/C", "setting": "second compound 0.316 µM, first compound 0.316 µM", "value": 4.24, "unit": "%"},
      {"measurement": "viability, T/C", "setting": "second compound 0.316 µM, first compound 1 µM", "value": 1.41, "unit": "%"},
      {"measurement": "viability, T/C", "setting": "second compound 0.316 µM, first compound 3.16 µM", "value": 1.02, "unit": "%"},
      {"measurement": "viability, T/C", "setting": "second compound 0.316 µM, first compound 10 µM", "value": 0.73, "unit": "%"},
      {"measurement": "viability, T/C", "setting": "second compound 1 µM, first compound 0.0316 µM", "value": 12.1, "unit": "%"},
      {"measurement": "viability, T/C", "setting": "second compound 1 µM, first compound 0.1 µM", "value": 4.72, "unit": "%"},
      {"measurement": "viability, T/C", "setting": "second compound 1 µM, first compound 0.316 µM", "value": 2.23, "unit": "%"},
      {"measurement": "viability, T/C", "setting": "second compound 1 µM, first compound 1 µM", "value": 0.4, "unit": "%"},
      {"measurement": "viability, T/C", "setting": "second compound 1 µM, first compound 3.16 µM", "value": 0.33, "unit": "%"},
      {"measurement": "viability, T/C", "setting": "second compound 1 µM, first compound 10 µM", "value": 0.3, "unit": "%"},
      {"measurement": "viability, T/C", "setting": "second compound 3.16 µM, first compound 0.0316 µM", "value": 1.34, "unit": "%"},
      {"measurement": "viability, T/C", "setting": "second compound 3.16 µM, first compound 0.1 µM", "value": 0.9, "unit": "%"},
      {"measurement": "viability, T/C", "setting": "second compound 3.16 µM, first compound 0.316 µM", "value": 0.41, "unit": "%"},
      {"measurement": "viability, T/C", "setting": "second compound 3.16 µM, first compound 1 µM", "value": 0.14, "unit": "%"},
      {"measurement": "viability, T/C", "setting": "second compound 3.16 µM, first compound 3.16 µM", "value": 0.16, "unit": "%"},
      {"measurement": "viability, T/C", "setting": "second compound 3.16 µM, first compound 10 µM", "value": 0.2, "unit": "%"},
      {"measurement": "viability, T/C", "setting": "second compound 10 µM, first compound 0.0316 µM", "value": 0.14, "unit": "%"},
      {"measurement": "viability, T/C", "setting": "second compound 10 µM, first compound 0.1 µM", "value": 0.25, "unit": "%"},
      {"measurement": "viability, T/C", "setting": "second compound 10 µM, first compound 0.316 µM", "value": 0.42, "unit": "%"},
      {"measurement": "viability, T/C", "setting": "second compound 10 µM, first compound 1 µM", "value": 0.25, "unit": "%"},
      {"measurement": "viability, T/C", "setting": "second compound 10 µM, first compound 3.16 µM", "value": 0.16, "unit": "%"},
      {"measurement": "viability, T/C", "setting": "second compound 10 µM, first compound 10 µM", "value": 0.14, "unit": "%"}
    ]}
  ]
}
